Results taken from patent US7557101B2, “4,5,6,7-tetrahydro-thieno[3,2-c] pyridine derivatives” (Hoffman-La Roche Inc., priority 2006, dated 2009).

Target: T1, human H3R (Homo sapiens, UniProt Q9Y5N1)
T1 construct: expressed in transfected cells; host or cells: CHO cells
Experiment: Competition binding assay with 3H-(R)α-methylhistamine on membranes of the human H3R-CHO cell line
Conditions: competition with 3H(R)α-methylhistamine (1 nM), Ki calculated from IC50 by Cheng-Prusoff
Experimental: Binding Assay with ^3H—(R)α-methylhistamine
Saturation binding experiments were performed using HR3-(CHO membranes prepared as described in Takahashi, K, Tokita, S., Kotani, H. (2003) J. Pharmacol. Exp. Therapeutics 307, 213-218.
An appropriate amount of membrane (60 to 80 μg protein/well) was incubated with increasing concentrations of ^3H(R)α-Methylhistamine di-hydrochloride (0.10 to 10 nM). Non specific binding was determined using a 200 fold excess of cold (R)α-Methylhistamine dihydrobromide (500 nM final concentration). The incubation was carried out at room temperature (in deep-well plates shaking for three hours). The final volume in each well was 250 μl. The incubation was followed by rapid filtration on GF/B filters (pre-soaked with 100 μl of 0.5% PEI in Tris 50 mM shaking at 200 rpm for two hours). The filtration was made using a cell-harvester and the filter plates were then washed five times with ice cold washing buffer containing 0.5 M NaCl. After harvesting, the plates were dried at 55° C. for 60 min, then we added scintillation fluid (Microscint 40, 40 microl in each well) and the amount of radioactivity on the filter was determined in Packard top-counter after shaking the plates for two hours at 200 rpm at room temperature.
Binding Buffer: 50 mM Tris-HCl pH 7.4 and 5 mM MgCl2×6H2O pH 7.4. Washing Buffer: 50 mM Tris-HCl pH 7.4 and 5 mM MgCl2×6H2O and 0.5 M NaCl pH 7.4.
Indirect measurement of affinity of H3R inverse agonists: twelve increasing concentrations (ranging from 10 μM to 0.3 nM) of the selected compounds were always tested in competition binding experiments using membrane of the human H3R—CHO cell line. An appropriate amount of protein, e.g. approximately 500 cpm binding of RAMH at Kd, were incubated for 1 hour at room temperature in 250 μl final volume in 96-well plates in presence of ^3H(R)α-methylhistamine (1 nM final concentration=Kd). Non-specific binding was determined using a 200 fold excess of cold (R)α-methylhistamine dihydrobromide.
All compounds were tested at a single concentration in duplicate. […] The concentration at which 50% inhibition of the radioligand ^3H(R)α-methylhistamine is obtained (the IC50) is determined from the linear regression of a plot of the logarithm of the concentration versus percent inhibition measured for the different concentrations. Ki's were calculated from IC50 based on Cheng-Prusoff equation (Cheng, Y, Prusoff, W H (1973) Biochem Pharmacol 22, 3099-3108): Ki=IC50/[1+D/Kd] wherein D is the concentration of the radioligand and Kd is the binding constant for the radioligand binding to the receptor under the conditions used in the competition experiment.

T1 sequence (Q9Y5N1 whole entry): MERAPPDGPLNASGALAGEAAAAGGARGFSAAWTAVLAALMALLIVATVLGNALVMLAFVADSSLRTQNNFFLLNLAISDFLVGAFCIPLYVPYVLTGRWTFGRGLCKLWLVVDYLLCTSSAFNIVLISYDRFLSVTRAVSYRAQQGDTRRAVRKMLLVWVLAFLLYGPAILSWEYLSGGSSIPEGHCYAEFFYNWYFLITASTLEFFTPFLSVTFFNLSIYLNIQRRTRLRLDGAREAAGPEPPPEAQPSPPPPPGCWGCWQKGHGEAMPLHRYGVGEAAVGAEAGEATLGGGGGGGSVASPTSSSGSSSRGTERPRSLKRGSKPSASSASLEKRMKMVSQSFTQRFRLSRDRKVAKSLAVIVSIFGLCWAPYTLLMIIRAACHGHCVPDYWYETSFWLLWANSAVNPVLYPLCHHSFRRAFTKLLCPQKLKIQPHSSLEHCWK

Cc1ccccc1S(=O)(=O)N1CCc2sc(OCCCN3CCCC3)cc2C1 [Example 56, 2-(3-pyrrolidin-1-yl-propoxy)-5-(toluene-2-sulfonyl)-4,5,6,7-tetrahydro-thieno[3,2-c]pyridine]
Ki: 27.3 nM

O=C(NCc1ccccc1)N1CCc2sc(OCCCN3CCCC3)cc2C1 [Example 48, 2-(3-pyrrolidin-1-yl-propoxy)-6,7-dihydro-4H-thieno[3,2-c]pyridine-5-carboxylic acid benzylamide]
Ki: 31.7 nM

CC1CCC(CC(=O)N2CCc3sc(OC4CCN(C(C)C)C4)cc3C2)CC1 (centres unmarked) [Example 90, 1-[2-(1-isopropyl-pyrrolidin-3-yloxy)-6,7-dihydro-4H-thieno[3,2-c]pyridin-5-yl]-2-(4-methyl-cyclohexyl)-ethanone]
Ki: 21.7 nM

O=C(N1CCOCC1)N1CCc2sc(OCCCN3CCCCC3)cc2C1 [Example 1, Morpholin-4-yl-[2-(3-piperidin-1-yl-propoxy)-6,7-dihydro-4H-thieno[3,2-c]pyridin-5-yl]-methanone]
Ki: 35.7 nM

CCCC(=O)N1CCc2sc(OCCCN3CCCCC3)cc2C1 [Example 33, 1-[2-(3-piperidin-1-yl-propoxy)-6,7-dihydro-4H-thieno[3,2-c]pyridin-5-yl]-butan-1-one]
Ki: 44.4 nM
